Data published in ChEMBL document CHEMBL1137885, “P4 and P1' optimization of bicycloproline P2 bearing tetrapeptidyl alpha-ketoamides as HCV protease inhibitors” (Bioorg Med Chem Lett, 2004).

Assays:
Plasma kallikrein = Plasma kallikrein (Homo sapiens, UniProt P03952); test: Binding affinity towards human kallikrein
[1] = Selectivity for HCV NS3 over human elastase
Trypsin = Trypsin (Homo sapiens, UniProt P07477+P07478+P35030); test: Binding affinity towards human trypsin; type: protein assay
NS3 = NS3 (Hepatitis C virus, UniProt A3EZJ3); test: Inhibition of HCV NS3 protease in the pNA based inhibition assay; design: species or system Hepacivirus hominis
Plasminogen = Plasminogen (Homo sapiens, UniProt P00747); test: Binding affinity towards human plasmin
Cathepsin B = Cathepsin B (Homo sapiens, UniProt P07858); test: Binding affinity towards human cathepsin B
Huh-7 [2] = test: Ratio of CC50 to that of IC50 value; type: functional, Homo sapiens
Chymotrypsinogen B = Chymotrypsinogen B (Homo sapiens, UniProt P17538); test: Binding affinity towards human Chymotrypsinogen
Procathepsin L = Procathepsin L (Homo sapiens, UniProt P07711); test: Selectivity for HCV NS3 over human cathepsin L
Huh-7 [3] = test: Cytotoxic concentration against Huh-7 liver cells in XTT cytotoxicity assay; type: functional; settings: Homo sapiens
Hepatitis C virus = test: Inhibitory concentration against hepatitis C virus in replicon assay; type: functional, organism-based, Hepacivirus hominis
Prothrombin = Prothrombin (Homo sapiens, UniProt P00734); test: Binding affinity towards human thrombin

Sequence of Procathepsin L (P07711 whole entry): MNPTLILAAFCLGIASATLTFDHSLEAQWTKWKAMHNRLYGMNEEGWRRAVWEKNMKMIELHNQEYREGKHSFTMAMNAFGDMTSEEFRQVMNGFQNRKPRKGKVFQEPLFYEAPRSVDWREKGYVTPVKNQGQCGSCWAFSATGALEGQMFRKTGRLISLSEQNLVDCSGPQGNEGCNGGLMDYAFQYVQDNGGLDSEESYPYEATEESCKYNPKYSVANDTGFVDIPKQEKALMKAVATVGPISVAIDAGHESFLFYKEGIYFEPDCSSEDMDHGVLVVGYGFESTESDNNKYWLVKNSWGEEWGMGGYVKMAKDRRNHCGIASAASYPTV
Sequence of Plasma kallikrein (P03952 20-390 limits assumed): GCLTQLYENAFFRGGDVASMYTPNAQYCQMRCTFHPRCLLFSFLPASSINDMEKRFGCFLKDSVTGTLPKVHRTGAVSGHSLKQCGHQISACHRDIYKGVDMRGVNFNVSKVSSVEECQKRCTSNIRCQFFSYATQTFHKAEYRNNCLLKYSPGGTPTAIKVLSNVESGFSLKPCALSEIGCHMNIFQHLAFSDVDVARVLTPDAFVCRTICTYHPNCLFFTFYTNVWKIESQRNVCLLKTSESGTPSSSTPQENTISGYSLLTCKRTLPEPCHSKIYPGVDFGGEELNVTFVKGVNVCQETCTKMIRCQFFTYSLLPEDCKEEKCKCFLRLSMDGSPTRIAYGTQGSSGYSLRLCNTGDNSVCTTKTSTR
Sequence of Plasma kallikrein (P03952 391-638 limits assumed): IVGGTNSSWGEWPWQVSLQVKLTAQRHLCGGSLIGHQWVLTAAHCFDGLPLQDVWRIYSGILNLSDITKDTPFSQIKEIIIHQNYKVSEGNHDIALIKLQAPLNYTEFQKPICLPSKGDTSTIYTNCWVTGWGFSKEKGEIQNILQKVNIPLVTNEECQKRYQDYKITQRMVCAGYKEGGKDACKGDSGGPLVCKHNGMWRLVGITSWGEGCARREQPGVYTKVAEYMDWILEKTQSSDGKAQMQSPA
Sequence of Chymotrypsinogen B (P17538 34-164 limits assumed, other chains not shown): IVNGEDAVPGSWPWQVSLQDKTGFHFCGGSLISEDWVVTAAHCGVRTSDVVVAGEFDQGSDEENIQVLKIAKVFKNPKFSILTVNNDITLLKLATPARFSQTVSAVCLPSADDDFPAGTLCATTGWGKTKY
Sequence of Chymotrypsinogen B (P17538 167-263 limits assumed, other chains not shown): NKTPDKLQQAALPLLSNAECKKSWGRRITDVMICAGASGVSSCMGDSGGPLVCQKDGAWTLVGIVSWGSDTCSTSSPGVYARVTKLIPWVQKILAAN
Sequence of NS3 (A3EZJ3 whole entry): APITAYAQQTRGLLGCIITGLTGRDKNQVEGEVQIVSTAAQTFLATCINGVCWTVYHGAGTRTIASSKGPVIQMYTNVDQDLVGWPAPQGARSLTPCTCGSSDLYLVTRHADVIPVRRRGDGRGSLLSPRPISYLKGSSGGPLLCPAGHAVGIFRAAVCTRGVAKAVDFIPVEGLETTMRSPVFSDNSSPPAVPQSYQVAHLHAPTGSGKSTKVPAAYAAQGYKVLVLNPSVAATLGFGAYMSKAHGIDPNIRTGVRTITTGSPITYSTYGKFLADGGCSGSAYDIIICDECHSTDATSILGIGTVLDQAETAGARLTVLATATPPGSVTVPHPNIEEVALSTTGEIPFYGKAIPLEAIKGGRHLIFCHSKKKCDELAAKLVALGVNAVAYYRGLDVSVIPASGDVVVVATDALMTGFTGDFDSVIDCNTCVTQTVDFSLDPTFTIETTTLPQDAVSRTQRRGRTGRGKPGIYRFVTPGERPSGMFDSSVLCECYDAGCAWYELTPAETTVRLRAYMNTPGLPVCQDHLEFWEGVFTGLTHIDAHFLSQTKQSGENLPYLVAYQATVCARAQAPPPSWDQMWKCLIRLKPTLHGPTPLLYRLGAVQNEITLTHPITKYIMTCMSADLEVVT
Sequence of Plasminogen (P00747 97-580 limits assumed): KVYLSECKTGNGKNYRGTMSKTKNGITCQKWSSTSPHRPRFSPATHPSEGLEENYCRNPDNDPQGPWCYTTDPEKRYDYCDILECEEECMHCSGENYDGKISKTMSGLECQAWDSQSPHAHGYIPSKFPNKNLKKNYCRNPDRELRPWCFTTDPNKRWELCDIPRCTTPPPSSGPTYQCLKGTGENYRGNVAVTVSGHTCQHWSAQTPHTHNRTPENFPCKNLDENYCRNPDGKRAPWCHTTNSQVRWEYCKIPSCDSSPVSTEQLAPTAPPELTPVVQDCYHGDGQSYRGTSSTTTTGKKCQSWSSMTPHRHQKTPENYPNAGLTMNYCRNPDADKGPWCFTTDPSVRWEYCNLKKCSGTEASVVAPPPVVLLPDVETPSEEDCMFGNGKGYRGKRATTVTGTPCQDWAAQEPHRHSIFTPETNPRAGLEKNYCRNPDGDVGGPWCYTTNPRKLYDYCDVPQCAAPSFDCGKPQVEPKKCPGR
Sequence of Plasminogen (P00747 581-810 limits assumed): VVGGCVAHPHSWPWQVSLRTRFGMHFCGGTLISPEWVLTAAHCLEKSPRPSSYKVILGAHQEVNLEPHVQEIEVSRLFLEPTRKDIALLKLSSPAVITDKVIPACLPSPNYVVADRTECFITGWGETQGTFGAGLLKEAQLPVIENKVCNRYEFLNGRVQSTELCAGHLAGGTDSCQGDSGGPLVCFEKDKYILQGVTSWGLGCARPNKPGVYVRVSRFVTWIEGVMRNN

| Ki (Plasma kallikrein) [µM] | selectivity ratio [1] | Ki (Trypsin) [µM] | Ki (NS3) [µM] | Ki (Plasminogen) [µM] | Ki (Cathepsin B) [µM] | Ki (Chymotrypsinogen B) [µM] | selectivity ratio (Procathepsin L) | IC50 (Hepatitis C virus) [µM] | Ki (Prothrombin) [µM] | SMILES | Ratio (Huh-7 [2]) | CC50 (Huh-7 [3]) [µM] |
| --- | --- | --- | --- | --- | --- | --- | --- | --- | --- | --- | --- | --- |
| > 50 | 29 | > 50 | 0.09 | > 50 | 283 | > 50 | 51 | 0.21 | > 50 | CCCC(NC(=O)[C@@H]1C2CCCC2CN1C(=O)[C@@H](NC(=O)[C@@H](NC(=O)c1cnccn1)C1CCCCC1)C(C)(C)C)C(=O)C(=O)N[C@H](C)c1ccccc1 (stereo partly drawn) | 105 | 22 |
|  |  |  | 0.65 |  |  |  |  | 2.81 |  | CCC[C@H](NC(=O)[C@@H]1C2CCCC2CN1C(=O)[C@@H](NC(=O)[C@@H](NC(=O)c1cnccn1)c1ccccc1)C(C)(C)C)C(=O)C(=O)NC1CC1 (stereo partly drawn) | 21 | 58.6 |
| > 50 | 36 | > 50 | 0.08 | > 50 | 10 | > 50 | 15 | 1.44 | > 50 | CCC[C@H](NC(=O)[C@@H]1C2CCCC2CN1C(=O)[C@@H](NC(=O)[C@@H](NC(=O)c1cnccn1)[C@@H](C)CC)C(C)(C)C)C(=O)C(=O)NC1CC1 (stereo partly drawn) | >69 | > 100 |
| > 50 | 102 | > 50 | 0.16 | > 50 | 3.9 | > 50 | 123 | 1.29 | > 50 | CCC[C@H](NC(=O)[C@@H]1C2CCCC2CN1C(=O)[C@@H](NC(=O)[C@@H](NC(=O)c1cnccn1)C(C)(C)C)C(C)(C)C)C(=O)C(=O)NC1CC1 (stereo partly drawn) | >77 | > 100 |
| > 50 |  | > 50 |  | > 50 | 1.6 | > 50 |  |  | > 50 | CCCC(NC(=O)[C@@H]1[C@H]2CCC[C@H]2CN1C(=O)[C@@H](NC(=O)[C@@H](NC(=O)c1cnccn1)C(C)C)C(C)(C)C)C(=O)C(=O)NC1CC1 (stereo partly drawn) |  | > 100 |

More lines, now with the values behind:

| SMILES | Ki (Plasma kallikrein) [µM] | selectivity ratio [1] | Ki (Trypsin) [µM] | Ki (NS3) [µM] | Ki (Plasminogen) [µM] | Ki (Cathepsin B) [µM] | Ki (Chymotrypsinogen B) [µM] | selectivity ratio (Procathepsin L) | IC50 (Hepatitis C virus) [µM] | Ki (Prothrombin) [µM] | Ratio (Huh-7 [2]) | CC50 (Huh-7 [3]) [µM] |
| --- | --- | --- | --- | --- | --- | --- | --- | --- | --- | --- | --- | --- |
| CCCC(NC(=O)[C@@H]1C2CCCC2CN1C(=O)[C@@H](NC(=O)[C@@H](NC(=O)c1cnccn1)C1CCCCC1)C(C)(C)C)C(=O)C(=O)N[C@H](C)CC (stereo partly drawn) | > 50 | 81 | > 50 | 0.08 | > 50 | 13 | > 50 | 107 | 1.07 | > 50 | 65 | 69.2 |
| CCC[C@H](NC(=O)[C@@H]1C2CCCC2CN1C(=O)[C@@H](NC(=O)[C@@H](NC(=O)c1cnccn1)[C@@H](C)OC)C(C)(C)C)C(=O)C(=O)NC1CC1 (stereo partly drawn) | > 50 | 126 | > 50 | 0.15 | > 50 | 7.3 | > 50 | 146 | 4.35 | > 50 | >22 | > 100 |
| CCCC(NC(=O)[C@@H]1C2CCCC2CN1C(=O)[C@@H](NC(=O)[C@@H](NC(=O)c1cnccn1)C1CCCCC1)C(C)(C)C)C(=O)C(=O)NC[C@@H](C)CC (stereo partly drawn) |  |  |  | 0.25 |  |  |  |  | 1 |  | 32 | 31.7 |
| CCCC(NC(=O)[C@@H]1C2CCCC2CN1C(=O)[C@@H](NC(=O)[C@H](CC1CCCCC1)NC(=O)c1cnccn1)C(C)(C)C)C(=O)C(=O)NC1CC1 (stereo partly drawn) |  |  |  | 0.65 |  |  |  |  | 2.81 |  | 16 | 45.5 |
| CC(C)(C)[C@H](NC(=O)[C@@H](NC(=O)c1cnccn1)C1CCCCC1)C(=O)N1CC2CCCC2[C@H]1C(=O)NC(CC(F)F)C(=O)C(=O)NC1CC1 (stereo partly drawn) | > 50 | 392 | > 50 | 0.02 | > 50 | 40 | > 50 | 760 | 0.4 | > 50 | 250 | > 100 |
| CCCC(NC(=O)[C@@H]1[C@H]2CCC[C@H]2CN1C(=O)[C@@H](NC(=O)[C@@H](NC(=O)c1cnccn1)C1CCCCC1)C(C)(C)C)C(=O)C(=O)NC1CC1 (stereo partly drawn) | > 50 | 62 | > 50 | 0.07 | > 50 | 3 | > 50 | 134 | 0.55 | > 50 | 157 | 86.5 |
